Experimental data published in patent US20260078119A1, “DEGRADER COMPOUNDS AND USES THEREOF” (Bristol-Myers Squibb Company, priority 2024, published 2026).

Target: T1, FAK (Homo sapiens, UniProt Q05397)
T1 construct: homozygous knock-in of a HiBiT tag (Promega Corporation, Madison, WI) to the C-terminus of the FAK gene in its natural genomic locus; endogenous in cells; host or cells: JHH-4-FAK-HiBiT clone d01 (CRISPR-Cas9 knock-in at the endogenous locus)
Assay: FAK-HiBiT Degradation Assay
Format: cell-based
Conditions: for FAK HiBiT Ymin: lower limit of the four parameter fit (value A), Ymax derived using DMSO control, JHH-4-FAK-HiBiT cells, two hours; for DC50: read-out: FAK HiBiT EC50
Text: To generate JHH-4-FAK-HiBiT cells for the FAK degradation assay, JHH-4 cells (Japanese Collection of Research Biosources Cell Bank, Japan) were transfected with ribonucleoprotein reagents to introduce, by CRISPR-Cas9 editing, the homozygous knock-in of a HiBiT tag (Promega Corporation, Madison, WI) to the C-terminus of the FAK gene in its natural genomic locus. Clonal cell populations were established by expanding single cells after CRISPR-Cas9 editing, with a clonal cell line named JHH-4-FAK-HiBiT clone d01 confirmed by next generation DNA sequencing to contain the expected HiBiT edited FAK gene and was selected for FAK degradation screening. Cells were selected and maintained in complete DMEM media (DMEM, 10% Heat Inactivated FBS, and Non-Essential Amino Acids at 37° C. and 5% CO2). Cells were passaged every 3-4 days by reseeding 0.5×10^6 cells in a T75 flask.
Cells were dispensed into 384-well white plates (Corning #3570, NY) that were pre-spotted with compounds using an acoustic dispenser (Echo acoustic transfer system, Beckman Coulter Life Sciences, Carlsbad, CA) as a 10-point dose response curve with a 3-fold dilution starting at 1 μM and including a DMSO control. Twenty-five microliters of media containing 2000 JHH-4-FAK-HiBiT Clone d01 cells was dispensed per well. Assay plates were incubated at 37° C. with 5% CO2 for two hours. After incubation, 25 μL of Nano-Glo HiBiT Lytic Reagent Working Solution (Promega Corporation, Madison, WI) was added to each well and incubated at room temperature for 10 minutes protected from light. After 10 minutes, luminescence was read on a PHERAstar luminometer (BMG Labtech, Cary, NC).
To determine the half-maximal effective concentration (EC50) values for FAK-HiBIT degradation, a four parameter logistic model was used: (Sigmoidal Dose-Response Model)(FIT=(A+((B−A)/1+((C/x)^D)))) where C is the inflection point (EC50), D is the Hill slope, and A and B are the low and high limits of the fit respectively). The lower limit of the fit (value A) is referred to as Ymin. The maximum limit constraint, Ymax, was derived using DMSO control. The curves were processed and evaluated using Dotmatics Atlas (Insightful Science, LLC, Boston, MA).

[1] = JHH-4-FAK-HiBiT clone d01 cells, two hours incubation, 10-point dose response, 3-fold dilution starting at 1 μM, Nano-Glo HiBiT luminescence

T1 sequence (Q05397 whole entry): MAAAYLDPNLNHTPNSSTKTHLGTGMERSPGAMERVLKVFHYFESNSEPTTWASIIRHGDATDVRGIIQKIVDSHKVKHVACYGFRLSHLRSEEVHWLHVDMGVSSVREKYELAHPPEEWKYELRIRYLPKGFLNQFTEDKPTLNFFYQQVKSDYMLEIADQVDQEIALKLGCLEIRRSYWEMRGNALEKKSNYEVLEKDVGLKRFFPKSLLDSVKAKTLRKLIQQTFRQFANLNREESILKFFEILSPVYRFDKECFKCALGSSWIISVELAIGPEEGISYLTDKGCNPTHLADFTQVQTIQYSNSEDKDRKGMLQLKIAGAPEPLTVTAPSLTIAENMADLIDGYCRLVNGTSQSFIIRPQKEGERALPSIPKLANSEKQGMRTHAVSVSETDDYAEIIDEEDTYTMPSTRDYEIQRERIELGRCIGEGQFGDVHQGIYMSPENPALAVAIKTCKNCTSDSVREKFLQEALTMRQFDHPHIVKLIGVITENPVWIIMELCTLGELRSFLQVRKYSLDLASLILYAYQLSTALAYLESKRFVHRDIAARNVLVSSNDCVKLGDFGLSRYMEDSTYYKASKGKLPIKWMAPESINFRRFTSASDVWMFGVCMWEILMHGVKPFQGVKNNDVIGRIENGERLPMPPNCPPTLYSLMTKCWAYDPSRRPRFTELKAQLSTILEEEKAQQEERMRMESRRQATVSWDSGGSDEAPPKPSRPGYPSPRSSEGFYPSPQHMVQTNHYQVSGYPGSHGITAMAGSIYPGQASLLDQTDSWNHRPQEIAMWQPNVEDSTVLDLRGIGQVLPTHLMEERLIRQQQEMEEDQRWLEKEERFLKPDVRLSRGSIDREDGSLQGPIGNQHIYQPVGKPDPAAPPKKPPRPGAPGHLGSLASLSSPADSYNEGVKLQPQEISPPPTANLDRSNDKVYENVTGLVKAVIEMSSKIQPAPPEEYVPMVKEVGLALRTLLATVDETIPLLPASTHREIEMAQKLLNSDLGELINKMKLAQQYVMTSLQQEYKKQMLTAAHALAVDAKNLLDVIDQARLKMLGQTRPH

SMILES	EC50 [1]	FAK HiBiT Ymin	DC50 [1]
CN(C)c1cc(-c2ncc(C#N)cc2Cl)c2ccn(Cc3ccc4c(c3)CN(C3CCC(=O)NC3=O)C4=O)c2n1 (stereo not shown) [Example 13, 5-chloro-6-(6-(dimethylamino)-1-((2-(2,6-dioxopiperidin-3-yl)-1-oxoisoindolin-5-yl)methyl)-1H-pyrrolo[2,3-b]pyridin-4-yl)nicotinonitrile]	0.00786 µM	4.03	
CN(C)c1cc(-c2ccc(C#N)cc2Cl)c2ncn(Cc3ccc4c(c3)CN(C3CCC(=O)NC3=O)C4=O)c2n1 (stereo not shown) [Example 18]		4.01	0.00837 µM
CN(C)c1nc(-c2ccc(C#N)cc2Cl)c2ccn(Cc3ccc4c(c3)CN(C3CCC(=O)NC3=O)C4=O)c2n1 (stereo not shown) [Example 27, 3-chloro-4-(2-(dimethylamino)-7-((2-(2,6-dioxopiperidin-3-yl)-1-oxoisoindolin-5-yl)methyl)-7H-pyrrolo[2,3-d]pyrimidin-4-yl)benzonitrile]		2.64	0.00868 µM
N#Cc1ccc(-c2cc(N3CC(F)C3)nc3c2cnn3Cc2ccc3c(c2)CN(C2CCC(=O)NC2=O)C3=O)c(F)c1 (stereo not shown) [Example 71, 4-(1-{[2-(2,6-dioxopiperidin-3-yl)-1-oxo-2,3-dihydro-1H-isoindol-5-yl]methyl}-6-(3-fluoroazetidin-1-yl)-1H-pyrazolo[3,4-b]pyridin-4-yl)-3-fluorobenzonitrile]		11.11	0.00567 µM
O=C1CCC(N2Cc3cc(Cn4ncc5c(-c6ncc(C7CC7)cc6F)cc(N6CC(F)C6)nc54)ccc3C2=O)C(=O)N1 (stereo not shown) [Example 86, 3-(5-{[4-(5-cyclopropyl-3-fluoropyridin-2-yl)-6-(3-fluoroazetidin-1-yl)-1H-pyrazolo[3,4-b]pyridin-1-yl]methyl}-1-oxo-2,3-dihydro-1H-isoindol-2-yl)piperidine-2,6-dione]		35.59	0.0125 µM
O=C1CCC(N2Cc3cc(Cn4ncc5c(-c6ncccc6Cl)cc(N6CCC6)nc54)ccc3C2=O)C(=O)N1 (stereo not shown) [Example 88, 3-(5-{[6-(azetidin-1-yl)-4-(3-chloropyridin-2-yl)-1H-pyrazolo[3,4-b]pyridin-1-yl]methyl}-1-oxo-2,3-dihydro-1H-isoindol-2-yl)piperidine-2,6-dione]		10.98	0.013 µM
CC(C)Nc1cc(-c2ccc(C#N)cc2F)c2cnn(Cc3ccc4c(c3)CN(C3CCC(=O)NC3=O)C4=O)c2n1 (stereo not shown) [Example 92, 4-(1-{[2-(2,6-dioxopiperidin-3-yl)-1-oxo-2,3-dihydro-1H-isoindol-5-yl]methyl}-6-[(propan-2-yl)amino]-1H-pyrazolo[3,4-b]pyridin-4-yl)-3-fluorobenzonitrile]		26.48	0.0141 µM
CC(C)Nc1cc(-c2ncc(C#N)cc2Cl)c2cnn(Cc3ccc4c(c3)CN(C3CCC(=O)NC3=O)C4=O)c2n1 (stereo not shown) [Example 103, 5-chloro-6-(1-{[2-(2,6-dioxopiperidin-3-yl)-1-oxo-2,3-dihydro-1H-isoindol-5-yl]methyl}-6-[(propan-2-yl)amino]-1H-pyrazolo[3,4-b]pyridin-4-yl)pyridine-3-carbonitrile]		13.98	0.0305 µM
Cc1cccnc1-c1cc(N2CC(F)C2)nc2c1cnn2Cc1ccc2c(c1)CN(C1CCC(=O)NC1=O)C2=O (stereo not shown) [Example 112, 3-(5-{[6-(3-fluoroazetidin-1-yl)-4-(3-methylpyridin-2-yl)-1H-pyrazolo[3,4-b]pyridin-1-yl]methyl}-1-oxo-2,3-dihydro-1H-isoindol-2-yl)piperidine-2,6-dione]		18.51	0.0467 µM
CC(C)Nc1cc(-c2ccncc2Cl)c2cnn(Cc3ccc4c(c3)CN(C3CCC(=O)NC3=O)C4=O)c2n1 (stereo not shown) [Example 116, 3-(5-{[4-(3-chloropyridin-4-yl)-6-[(propan-2-yl)amino]-1H-pyrazolo[3,4-b]pyridin-1-yl]methyl}-1-oxo-2,3-dihydro-1H-isoindol-2-yl)piperidine-2,6-dione]		34.23	0.0672 µM
CC(C)Nc1cc(-c2ncccc2Cl)c2cnn(Cc3ccc4c(c3)CN(C3CCC(=O)NC3=O)C4=O)c2n1 (stereo not shown) [Example 117, 3-(5-{[4-(3-chloropyridin-2-yl)-6-[(propan-2-yl)amino]-1H-pyrazolo[3,4-b]pyridin-1-yl]methyl}-1-oxo-2,3-dihydro-1H-isoindol-2-yl)piperidine-2,6-dione]		25.54	0.0737 µM
O=C1CCC(N2Cc3cc(Cn4ncc5c(-c6ccc(C7(O)CCOCC7)cn6)cc(N6CC(F)C6)nc54)ccc3C2=O)C(=O)N1 (stereo not shown) [Example 122, 3-(5-{[6-(3-fluoroazetidin-1-yl)-4-[5-(4-hydroxyoxan-4-yl)pyridin-2-yl]-1H-pyrazolo[3,4-b]pyridin-1-yl]methyl}-1-oxo-2,3-dihydro-1H-isoindol-2-yl)piperidine-2,6-dione]		74.73	0.0981 µM

Next, values leading:

EC50 [1]	FAK HiBiT Ymin	DC50 [1]	SMILES
	7.90	0.00343 µM	N#Cc1ccc(-c2cc(N3CCC3)nc3c2cnn3Cc2ccc3c(c2)CN(C2CCC(=O)NC2=O)C3=O)c(Cl)c1 (stereo not shown) [Example 58, 4-[6-(azetidin-1-yl)-1-{[2-(2,6-dioxopiperidin-3-yl)-1-oxo-2,3-dihydro-1H-isoindol-5-yl]methyl}-1H-pyrazolo[3,4-b]pyridin-4-yl]-3-chlorobenzonitrile]
	9.10	0.00357 µM	Cc1nn(Cc2ccc3c(c2)CN(C2CCC(=O)NC2=O)C3=O)c2nc(N3CCC3)cc(-c3ccc(C#N)cc3Cl)c12 (stereo not shown) [Example 60, 4-[6-(azetidin-1-yl)-1-{[2-(2,6-dioxopiperidin-3-yl)-1-oxo-2,3-dihydro-1H-isoindol-5-yl]methyl}-3-methyl-1H-pyrazolo[3,4-b]pyridin-4-yl]-3-chlorobenzonitrile]
	12.88	0.00392 µM	N#Cc1ccc(-c2cc(N3CCC3)nc3c2cnn3Cc2ccc3c(c2)CN(C2CCC(=O)NC2=O)C3=O)c(F)c1 (stereo not shown) [Example 62, 4-[6-(azetidin-1-yl)-1-{[2-(2,6-dioxopiperidin-3-yl)-1-oxo-2,3-dihydro-1H-isoindol-5-yl]methyl}-1H-pyrazolo[3,4-b]pyridin-4-yl]-3-fluorobenzonitrile]
	15.10	0.00519 µM	CC(C)Nc1cc(-c2ccc(C#N)cc2Cl)c2cnn(Cc3ccc4c(c3)CN(C3CCC(=O)NC3=O)C4=O)c2n1 (stereo not shown) [Example 68, 3-chloro-4-(1-{[2-(2,6-dioxopiperidin-3-yl)-1-oxo-2,3-dihydro-1H-isoindol-5-yl]methyl}-6-[(propan-2-yl)amino]-1H-pyrazolo[3,4-b]pyridin-4-yl)benzonitrile]
	13.38	0.0056 µM	N#Cc1ccc(-c2cc(N3CCC3)nc3c2c(Cl)nn3Cc2ccc3c(c2)CN(C2CCC(=O)NC2=O)C3=O)c(Cl)c1 (stereo not shown) [Example 70, 4-[6-(azetidin-1-yl)-3-chloro-1-{[2-(2,6-dioxopiperidin-3-yl)-1-oxo-2,3-dihydro-1H-isoindol-5-yl]methyl}-1H-pyrazolo[3,4-b]pyridin-4-yl]-3-chlorobenzonitrile]
	19.19	0.0103 µM	N#Cc1cnc(-c2cc(N3CCC3)nc3c2cnn3Cc2ccc3c(c2)CN(C2CCC(=O)NC2=O)C3=O)c(F)c1 (stereo not shown) [Example 84, 6-[6-(azetidin-1-yl)-1-{[2-(2,6-dioxopiperidin-3-yl)-1-oxo-2,3-dihydro-1H-isoindol-5-yl]methyl}-1H-pyrazolo[3,4-b]pyridin-4-yl]-5-fluoropyridine-3-carbonitrile]
	11.17	0.0292 µM	N#Cc1ccc(-c2cc(N3CCC3)nc3c2cnn3Cc2ccc3c(n2)CN(C2CCC(=O)NC2=O)C3=O)c(Cl)c1 (stereo not shown) [Example 101, 4-[6-(azetidin-1-yl)-1-{[6-(2,6-dioxopiperidin-3-yl)-5-oxo-5H,6H,7H-pyrrolo[3,4-b]pyridin-2-yl]methyl}-1H-pyrazolo[3,4-b]pyridin-4-yl]-3-chlorobenzonitrile]
	12.49	0.0796 µM	N#Cc1ccc(-c2cc(N3CCC3)nc3c2cnn3Cc2cnc3c(c2)CN(C2CCC(=O)NC2=O)C3=O)c(Cl)c1 (stereo not shown) [Example 118, 4-[6-(azetidin-1-yl)-1-{[6-(2,6-dioxopiperidin-3-yl)-7-oxo-5H,6H,7H-pyrrolo[3,4-b]pyridin-3-yl]methyl}-1H-pyrazolo[3,4-b]pyridin-4-yl]-3-chlorobenzonitrile]
